Experimental data reported in patent US20070037756A1, “Compositions and methods for the prevention and treatment of circulatory conditions” (LEADTREK, INC, priority 2005, published 2007).

Key:
male Sprague-Dawley rats = assay: Animal Model (In Vivo) Assay For Platelet Aggregation Activity using arteriovenous shunts; design: species or system rat; conditions: oral; for Thrombus weight (newly formed thrombus wet weight): glycerol glucoside derivative 50, 100 mg/kg, aspirin 30 mg/kg x 4 times, 120 min after treatment, shunt 15 minutes, saline 12.9 mg
Description: Assays for platelet aggregation activity using arteriovenous shunts were carried out as provided in Umetsu et al., “Effect Of 1-Methyl-2-Mercapto-5(3-Pyridyl)-Imidazole (KC-6141), An Antiaggregation Compound, On Experimental Thrombosis In Rats” Thromb Haemostasis 39:74-83 (1978); and Tang et al., “Anti-Thrombotic Activity Of PDR, A Newly Synthesized L-Arg Derivative, On Three Thrombosis Models In Rats” Thrombosis Research 110:127-133 (2003). Briefly, male Sprague-Dawley rats weighing 320-380 g were used after overnight fasting. The rats were administered orally with: i) a negative control (isotonic saline): ii) a glycerol glucoside derivative (50, 100 mg/kg); and iii) a positive control compound, aspirin (30 mg/kg x 4 times). A 75 min period occurred between each dose to allow the return of homeostasis.
The left jugular vein and the right carotid artery were cannulated with a 4 cm long polyethylene tube (o.d. 1 mm) while being infused with 50 μ/kg i.v. heparin. These catheters were then connected to the ends of a 15 cm long polyethylene tube (o.d. 2 mm) containing a 5 cm long suture silk thread (no. 4). Before the silk thread was placed in the polyethylene tube a pre-treatment wet weight was determined (i.e., a pre-thrombus formation weight). At 120 min after each drug treatment, the blood flow through the shunt was measured for 15 minutes. The silk thread, now containing newly formed thrombi, was gently removed, and a post-treatment wet weight was measured immediately. The newly formed thrombus wet weight was determined by subtracting the pre-treatment silk wet weight from the post-treatment silk wet weight. Thrombus weight for saline was 12.9 mg, for BH-2 (Regaloside C (2)) was 8.8 mg, and for aspirin was 7.1 mg (see FIG. 12).
The rate of thrombosis inhibition was calculated with the equation as follows: % Thrombosis inhibition=(A−A1)/A×100%
Where A was the newly formed thrombus wet weight of the control group (i.e., Saline), and A1 was the newly formed thrombus wet weight of the test derivative or positive control compound (i.e., aspirin).

Rat PRP = assay: Assay of in Vitro Antiplatelet Aggregation (turbidimetry, rat PRP stimulated with ADP and collagen); format: cell-based; conditions: maximal aggregation induced by ADP and collagen
Description: Platelet aggregation was determined using methods and minor variations as described in Choo et al., Biol. Pharm. Bull. 25(10) 1328-1332 (2002) and Born et al., J. Physiol., 168, 178-195 (1963). For example, blood from rats was collected by cardiac puncture into a plastic flask containing 2.2% sodium citrate (1:9 v/v). Platelet-rich plasma (PRP) was prepared by centrifugation of the blood at 120×g for 15 min and further centrifuged at 850×g for 10 min to prepare platelet poor plasma (PPP). The supernatant was pooled and centrifuged at 600×g for 15 min at room temperature. The platelet pellets were washed with modified Tyrode-HEPES buffer (129 mM NaCl, 2.8 mM KCl, 8.9 mM NaHCO3, 0.8 mM MgCl2, 0.8 mM KH2PO4, 2 mM EGTA, 5.6 mM glucose, 10 mM HEPES, 0.35% BSA, pH 7.4) and centrifuged at 600×g for 15 min. Then platelet pellets were gently resuspended in Tyrode-HEPES buffer and used in the experiments.
Platelet aggregation was measured by turbidimetry using a dual-channel Whole Lumini-lonized Calcium Aggregometer (Chrono-Log Co., Ltd., Havertown, Pa., U.S.A.). Rat PRP ([…]) was incubated at 37° C. for 2 min in the aggregometer with stirring at 1200 rpm and then stimulated with ADP and collagen. […] Changes in light transmission were recorded for 10 min after stimulation with these agents. […]

Structure (SMILES) | % Thrombosis inhibition (male Sprague-Dawley rats; (A-A1)/A x 100% versus saline control, rat arteriovenous shunt) [%] | Thrombus weight (newly formed thrombus wet weight) (male Sprague-Dawley rats) [mg] | inhibition at 10 µM (Rat PRP) [%]
O=C(/C=C/c1ccc(O)c(O)c1)OC[C@@H](O)CO[C@@H]1O[C@H](CO)[C@@H](O)[C@H](O)[C@H]1O [BH-2, regaloside C] | 31.7 | 8.8 | –
CC(=O)Oc1ccccc1C(=O)O [aspirin, acetylsalicylic acid, reference compound] | – | 7.1 | –
O=C(O)c1cc(O)c2c(c1)C(=O)c1cccc(O)c1C2=O [rhein] | – | – | 1.8
